What was measured:
[1] = commercially available Form I prepared by prior art methods (U.S. Pat. No. 5,229,382); cited from earlier work
[2] = color stability of Olanzapine Form I on exposure at room temperature / in air; assay type: physicochemical; conditions: Form I from Form E by rapid crystallization in methylene chloride-methanol and step-wise drying, at least 3 months
Source text: In another aspect of this invention the new poly-type Olanzapine Form E generated with rapid crystallization in methylene chloride-methanol along with step-wise drying techniques produces non-solvated anhydrous Form I of 2-methyl-4-(4-methyl-1-piperazinyl)-10H-thieno[2,3-b][1,5] benzodiazepine which is stable enough to be used commercially in pharmaceutical formulations.

[3] = solid-state stability of poly-type Form E at room temperature; assay type: physicochemical; conditions: step-wise drying converts it to Form I
Source text: The new poly-type E is stable at room temperature but when subjected to step-wise drying techniques results in substantially pure Olanzapine Form I.

Row | Compound | color change over time due to exposure in air [1] | color change during exposure at room temperature [2] | stability at room temperature [3]
1 | Cc1cc2c(s1)Nc1ccccc1N=C2N1CCN(C)CC1 [Olanzapine Form I, 2-methyl-4-(4-methyl-1-piperazinyl)-10H-thieno[2,3-b][1,5] benzodiazepine] | color is found to change over time | No color change | –
2 | Cc1cc2c(s1)Nc1ccccc1N=C2N1CCN(C)CC1 [poly-type E, 2-methyl-4-(4-methyl-1-piperazinyl)-10H-thieno[2,3-b][1,5] benzodiazepine] | – | – | stable
